From patent US20110136776A1, “Copper(1)Chloride Complex of Nicotinic Acid and Pharmaceutical Compositions Containing the Same” (priority 2008, published 2011)

Tested on: fatigue
Details: all types of fatigue: unexplained fatigue, chronic fatigue syndrome, fibromyalgia

## [CuCl (Nicotinic acid)2 H20]complex [The complex]
  Effect in chronic fatigue (muscle pain, physical activity, productivity, depression): relieved the muscle pain, increased the physical activity and productivity
